Results taken from patent publication US11883418B2, “Compound TSYI-ZAC for inhibiting dengue virus infection and medicinal use thereof” (Syi Biotechnology Co., Ltd., priority 2022, dated 2024).
“And” between values parts separate entries of the source, which are not always exact repeats. Equal values may be shown once.

Legend:
[1] = test system: IL-8; assay: IL-8 expression in infected supernatant of DENV-infected Meg-01 cells, enzyme immunoassay; format: cell-based, human; settings: after dengue virus infection, extract at IC10 concentration
Experimental: (§1) 2×10^4 Meg-01 cells are lysed in a RPMI culture medium containing 10% fetal bovine serum for in vitro infection with dengue virus. The infection condition is 1 MOI, a total volume of virus sap and cell sap is 2 ml, and the selected virus is dengue virus type 2 (DENV-2), strain 16681. The infection mixture is cultured in a 37° C. incubator for 2 hours, and the tube is shaken once every 30 minutes to increase a chance of virus contacting the cells. After 2 hours, centrifuge (600 rpm, 6 minutes) with a centrifuge to remove the virus that is not in contact with the cells, and re-lyse the cells with an appropriate amount of a cell culture medium, and then divide the cells into a cell culture medium (2 ml) or into a cell culture medium additional added with the Antrodia camphorata extract ZAC and the Antrodia camphorata extract YS-1, the centrifuge tube is finally placed in a 37° C. incubator, and the infection supernatant is collected at specific infection time points (time points: 2 hours, and 1, 2, 3, 5, 7 days after infection). The infection mixture is taken out at the specific time points, centrifuged with a centrifuge (600 rpm, 6 minutes), the infection supernatant is separated, and a viral titer is assayed by viral plaque assay and an expression of cytokines is assayed by enzyme combined with immunosorbent assay. […]

[2] = test system: dengue virus type 2 (DENV-2), strain 16681; assay: Dengue virus infection of Meg-01 cells, viral titer by plaque assay; format: cell-based; settings: for dengue viral titer versus infected control: p value<0.0001
Experimental: 2×10^4 Meg-01 cells are lysed in a RPMI culture medium containing 10% fetal bovine serum for in vitro infection with dengue virus. The infection condition is 1 MOI, a total volume of virus sap and cell sap is 2 ml, and the selected virus is dengue virus type 2 (DENV-2), strain 16681. The infection mixture is cultured in a 37° C. incubator for 2 hours, and the tube is shaken once every 30 minutes to increase a chance of virus contacting the cells. After 2 hours, centrifuge (600 rpm, 6 minutes) with a centrifuge to remove the virus that is not in contact with the cells, and re-lyse the cells with an appropriate amount of a cell culture medium, and then divide the cells into a cell culture medium (2 ml) or into a cell culture medium additional added with the Antrodia camphorata extract ZAC and the Antrodia camphorata extract YS-1, the centrifuge tube is finally placed in a 37° C. incubator, and the infection supernatant is collected at specific infection time points (time points: 2 hours, and 1, 2, 3, 5, 7 days after infection). The infection mixture is taken out at the specific time points, centrifuged with a centrifuge (600 rpm, 6 minutes), the infection supernatant is separated, and a viral titer is assayed by viral plaque assay and an expression of cytokines is assayed by enzyme combined with immunosorbent assay.
7×10^5/well […] kidney epithelial cells (BHK cells) are lysed in 1.5 ml of a DMEM culture medium containing 5% fetal bovine serum and seeded on a 6-well plate. The virus solution to be tested will be serially diluted first. The preparation method is to add 100 μL of unknown virus solution to 900 μL of a DMEM culture medium containing 2% fetal bovine serum to achieve a 10-fold dilution. After the cells to be seeded are attached onto the plate, remove the culture medium, add 400 μL of the virus solution to be tested, and culture in a 37° C. incubator for 2 hours. The plate needs to be shaken once every 15 minutes so that the infection solution can evenly cover the cells. After two hours, the infection solution is removed, methylcellulose is added to limit a range of virus movement, and the plate is placed back into the 37° C. incubator to culture for 7 days. […] Finally, the dye is washed off with clean water, and a number of plaques formed is counted to calculate the viral titer. […]
2 hours after the […] cells are infected by dengue virus, centrifuge to remove excessive virus, and the cells are re-lysed in a cell culture medium containing the Antrodia camphorata extract ZAC (91.68 μg/mL) or the Antrodia camphorata extract YS-1 (176.51 μg/mL), respectively. […] Plaque assay will be used on the collected infected supernatant (n=3) to quantify a viral titer.

[3] = test system: Meg-01 cells; assay: Cell viability assay (WST-1) of Meg-01 cells; format: cell-based, human; settings: for IC10 (concentration that produces 10% inhibition of cell viability): Meg-01 cells, co-culture 7 days, WST-1, OD 440 nm; for effect on cell viability: 400 μg/mL; for effect on cell viability / toxicity on Meg-01 cells (cell viability): 7 days; for toxicity on Meg-01 cells (cell viability): low concentrations 25 μg/mL, 50 μg/mL
Experimental: Meg-01 cell strains (CRL2021, ATCC, human myelo-megakaryocyte leukemia cell strains) are cultured in a RPMI medium with 10% fetal bovine serum, when a cell density reaches 80-90%, the cell sap can be withdrawn into a centrifuge tube, after being centrifuged in a centrifuge (600 rpm, 6 minutes), then remove the supernatant, and re-lyse the centrifuged cells with an appropriate amount of a culture medium for subculture or subsequent experiments.
1×10^3 Meg-01 cells are lysed in 100 μL of 10% fetal bovine serum in a RPMI culture medium and seeded into a 96-well U-shaped plate. Different concentrations of the Antrodia camphorata extract ZAC and the Antrodia camphorata extract YS-1 are added to the cells for co-culture at 37° C. for 7 days, while the cells added with dimethyl sulfoxide (DMSO) are used as an experimental control group.
Please refer to FIG. 1. FIG. 1 is a graph of viability of Meg-01 cells after adding the Antrodia camphorata extract according to one embodiment of the invention. The Meg-01 cells are co-cultured with different concentrations of the Antrodia camphorata extract ZAC or the Antrodia camphorata extract YS-1 respectively, and the group added with DMSO is used as an experimental control group. After the cells are co-cultured with the Antrodia camphorata extract for 7 days, WST-1 assay reagent is added to the cells and OD 440 nm value is collected to assay a toxicity of the drug on the cells, the cell group without addition of the Antrodia camphorata extract is regarded as an experimental control group, and the cell groups added with different concentrations of the Antrodia camphorata extract are regarded as experimental groups.

[4] = test system: IL-6; assay: IL-6 expression in infected supernatant of DENV-infected Meg-01 cells, enzyme immunoassay; format: cell-based, human; settings: after dengue virus infection, extract at IC10 concentration
Experimental: as §1

[5] = test system: IFN-α; assay: IFN-α expression in infected supernatant of DENV-infected Meg-01 cells, enzyme immunoassay; format: cell-based, human; settings: 5th and 7th days after infection, extract at IC10 concentration; day 5 P value 0.0021
Experimental: as §1

SMILES | expression of cellular inflammatory factor IL-8 [1] | dengue viral titer versus infected control ([2]; 176.51 μg/mL added after infection) | inhibitory effect on dengue virus (viral titer) ([2]; high dose 176.51 μg/mL compared with low dose 25 μg/mL) | inhibitory effect on dengue virus (viral titer) ([2]; low dose 25 μg/mL) | IC10 (concentration that produces 10% inhibition of cell viability) [3] | effect on cell viability ([3]; higher concentrations 200 μg/mL) | toxicity on Meg-01 cells (cell viability) ([3]; 100 μg/mL) | expression of cellular inflammatory factor IL-6 [4] | amount of secretion of IFN-α versus infected control [5] | dengue viral titer versus infected control ([2]; 91.68 μg/mL added 2 hours after infection, late stages of infection (5th to 7th days)) | effect on cell viability ([3]; higher concentrations 100 μg/mL, 200 μg/mL) | toxicity on Meg-01 cells (cell viability) [3]
COc1cc(C)c(OC)c2c1OCO2 [YS-1, 4,7-dimethoxy-5-methyl-1,3-benzodioxole] | effectively reducing an expression | significantly reducing the viral titer | better inhibitory effect on dengue virus | inhibitory effect on dengue virus | 176.512 µg/mL and 176.51 µg/mL | slight effect on cell viability | generally not toxic | effectively reducing an expression | – | – | – | –
C=C(CC[C@@H](C)[C@H]1CC[C@H]2C3=C(C(=O)[C@H](O)[C@]12C)[C@@]1(C)CC[C@@H](O)[C@@H](C)[C@@H]1CC3=O)C(C)C(=O)O (stereo partly drawn) [ZAC, Zhankuic acid C] | effectively reducing an expression | – | – | – | 91.675 µg/mL and 91.68 µg/mL | – | – | effectively reducing an expression | significantly higher | decreases significantly | slight effect on cell viability | generally has no toxicity
